Experimental data published in patent publication US20210403460A1, “INHIBITORS OF MUTANT ISOCITRATE DEHYDROGENASES AND COMPOSITIONS AND METHODS THEREOF” (IsoCure Biosciences Inc., priority 2016, published 2021).

What was measured:
Type in all cases: biochemical
WT IDH1 = WT IDH1 (Homo sapiens, UniProt O75874); test: Wild-type IDH1 enzyme assay, NADPH production by diaphorase/resazurin coupled detection; conditions: 60 min preincubation with enzyme/NADP, 45 min reaction, room temperature
Procedure: (§1) Compounds were tested against 3 enzymes WT IDH1, IDH1 R132C, IDH1 R132H
(§2) Assay Format: The production or depletion of NADPH by IDH enzymes was measured by diaphorase/resazurin coupled detection.
Reaction Procedure Wild-Type:
(§3) 1. Deliver enzyme/NADP in the reaction buffer into wells of reaction plate except No Enzyme control wells. Add buffer+NADP into No Enzyme wells. 2. Deliver compound in 100% DMSO into the enzyme mixture. Spin down and preincubate for 60 min at room temperature. 3. Deliver Substrate mixture to initiate the reaction. Spin down plate and gently shake 45 minutes at room temperature.
4. Make a 3× mix of Detection mixture in the reaction buffer, and add detection mixture into the reaction. Spin down. 5. Incubate at room temperature for 10 minutes.
6. Measure in Envision. (Ex/Em=535/590 nm)
7. Subtract background (the average value of the No Enzyme control wells) from raw data. Average the DMSO control wells and set value as 100%. Take ratio of measured data/average DMSO control value times 100% to arrive at % activity.

IDH1 (R132H) = IDH1 (R132H) (Homo sapiens, UniProt O75874, R132H); test: IDH1 R132H enzyme assay, NADPH depletion by diaphorase/resazurin coupled detection; conditions: 60 min preincubation with enzyme/NADPH, 45 min reaction, room temperature
Sequence of IDH1 (R132H) (O75874 whole entry R132H): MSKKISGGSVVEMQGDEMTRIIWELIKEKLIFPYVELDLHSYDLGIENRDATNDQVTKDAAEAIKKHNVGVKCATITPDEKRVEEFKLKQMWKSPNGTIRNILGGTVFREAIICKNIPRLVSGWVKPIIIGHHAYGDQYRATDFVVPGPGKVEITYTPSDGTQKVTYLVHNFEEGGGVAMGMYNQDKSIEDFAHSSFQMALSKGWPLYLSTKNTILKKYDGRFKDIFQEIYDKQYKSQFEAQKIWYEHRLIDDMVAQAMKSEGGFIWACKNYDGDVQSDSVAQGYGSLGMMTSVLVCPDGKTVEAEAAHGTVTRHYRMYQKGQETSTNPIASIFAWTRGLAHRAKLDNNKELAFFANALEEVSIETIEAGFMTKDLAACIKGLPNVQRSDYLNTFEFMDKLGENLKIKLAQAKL
Procedure: as §1, §2
(§4) Reaction Procedure Mutant:
as §3, with “8.” for “1.”, “enzyme/NADPH” for “enzyme/NADP”, “buffer+NADPH” for “buffer+NADP”, “9.” for “2.”, “10.” for “3.”
(§5) Detection Step (the Same as Wt):
(§6) 11. Make a 3× mix of Detection mixture in the reaction buffer, and add detection mixture into the reaction. Spin down. 12. Incubate at room temperature for 10 minutes.
(§7) 13. Measure in Envision. (Ex/Em=535/590 nm)
(§8) 14. […] (the average value of the No Enzyme wells). Average the DMSO control wells and set value as 100%. Take ratio of measured data/average DMSO control value times 100% to arrive at % activity.

IDH1 (R132C) = IDH1 (R132C) (Homo sapiens, UniProt O75874, R132C); test: IDH1 R132C enzyme assay, NADPH depletion by diaphorase/resazurin coupled detection; conditions: 60 min preincubation with enzyme/NADPH, 45 min reaction, room temperature
Sequence of IDH1 (R132C) (O75874 whole entry R132C): as the sequence (O75874 whole entry R132H) above, with H132C counted along it
Procedure: as §1, §2, §4
as §3, with “8.” for “1.”, “enzyme/NADPH” for “enzyme/NADP”, “buffer+NADPH” for “buffer+NADP”, “9.” for “2.”, “10.” for “3.”
as §5, §6, §7, §8

Sequence of WT IDH1 (O75874 whole entry): as the sequence (O75874 whole entry R132H) above, with H132R counted along it

Row | IC50 (WT IDH1) | IC50 (IDH1 (R132H)) | IC50 (IDH1 (R132C)) | SMILES
1 | 9460 nM | 1.32 nM | 1.61 nM | C=CC(=O)N1CCN(Cc2ccc([C@H](C)Nc3nccc(N4C(=O)OC[C@@H]4C(C)C)n3)cc2)CC1 [IS01, (S)-3-(2-(((S)-1-(4-((4-acryloylpiperazin-1-yl)methyl)phenyl)ethyl)amino)pyrimidin-4-yl)-4-isopropyloxazolidin-2-one]
2 | 8520 nM | 3.61 nM | 3.35 nM | C=CC(=O)Nc1ccc(Nc2ccc([C@H](C)Nc3nccc(N4C(=O)OC[C@@H]4C(C)C)n3)cc2)nc1 [IS03, N-(6-((4-((S)-1-((4-((S)-4-isopropyl-2-oxooxazolidin-3-yl)pyrimidin-2-yl)amino)ethyl)phenyl)amino)pyridin-3-yl)acrylamide]
3 | > 10000 nM | 10.5 nM | 7.55 nM | C=CC(=O)Nc1ccc(Nc2ccc([C@H](C)Nc3nccc(N4C(=O)OC[C@@H]4C(C)C)n3)cc2)cc1 [IS04, N-(4-((4-((S)-1-((4-((S)-4-isopropyl-2-oxooxazolidin-3-yl)pyrimidin-2-yl)amino)ethyl)phenyl)amino)phenyl)acrylamide]
4 | > 1480 nM | – | 4.67 nM | C=CC(=O)Nc1cccc(Nc2ccc([C@H](C)Nc3nccc(N4C(=O)OC[C@@H]4C(C)C)n3)cc2)c1 [IS05, N-(3-((4-((S)-1-((4-((S)-4-isopropyl-2-oxooxazolidin-3-yl)pyrimidin-2-yl)amino)ethyl)phenyl)amino)phenyl)acrylamide]
5 | – | 340 nM | – | C=CC(=O)N1CCC(Oc2ccc(C(C)Nc3nccc(N4C(=O)OC[C@@H]4C(C)C)n3)cn2)CC1 (stereo partly drawn) [IS07, (4S)-3-(2-((1-(6-((1-acryloylpiperidin-4-yl)oxy)pyridin-3-yl)ethyl)amino)pyrimidin-4-yl)-4-isopropyloxazolidin-2-one]
6 | – | 161 nM | 198 nM | C=CC(=O)Nc1ccc(N(C)c2cnc(C(C)Nc3nccc(N4C(=O)OC[C@@H]4C(C)C)n3)nc2)cc1 (stereo partly drawn) [IS012, N-(4-((2-(1-((4-((S)-4-isopropyl-2-oxooxazolidin-3-yl)pyrimidin-2-yl)amino)ethyl)pyrimidin-5-yl)(methyl)amino)phenyl)acrylamide]
7 | – | 107 nM | 285 nM | C=CC(=O)Nc1cccc(-c2cnc(C(C)Nc3nccc(N4C(=O)OC[C@@H]4C(C)C)n3)nc2)c1 (stereo partly drawn) [IS013, N-(3-(2-(1-((4-((S)-4-isopropyl-2-oxooxazolidin-3-yl)pyrimidin-2-yl)amino)ethyl)pyrimidin-5-yl)phenyl)acrylamide]
8 | – | – | 2.61 nM | C=CC(=O)N1CCN(Cc2ccc([C@H](C)Nc3nc(N4C(=O)OC[C@@H]4C(C)C)c4sccc4n3)cc2)CC1 [IS014, (S)-3-(2-(((S)-1-(4-((4-acryloylpiperazin-1-yl)methyl)phenyl)ethyl)amino)thieno [3,2-d]pyrimidin-4-yl)-4-isopropyloxazolidin-2-one]
